Results on four compounds are retold here after US6933317B2, “PGD2 receptor antagonistic pharmaceutical compositions” (Shionogi & Co. Ltd., priority 2000, dated 2005).

Data set [1] addresses T1, PGD2 receptor (Homo sapiens, UniProt Q13258).
T1 construct: Peripheral blood was collected from a healthy volunteer; endogenous in cells; host or cells: washed human platelets from peripheral blood of a healthy volunteer
T1 sequence (Q13258 1-359): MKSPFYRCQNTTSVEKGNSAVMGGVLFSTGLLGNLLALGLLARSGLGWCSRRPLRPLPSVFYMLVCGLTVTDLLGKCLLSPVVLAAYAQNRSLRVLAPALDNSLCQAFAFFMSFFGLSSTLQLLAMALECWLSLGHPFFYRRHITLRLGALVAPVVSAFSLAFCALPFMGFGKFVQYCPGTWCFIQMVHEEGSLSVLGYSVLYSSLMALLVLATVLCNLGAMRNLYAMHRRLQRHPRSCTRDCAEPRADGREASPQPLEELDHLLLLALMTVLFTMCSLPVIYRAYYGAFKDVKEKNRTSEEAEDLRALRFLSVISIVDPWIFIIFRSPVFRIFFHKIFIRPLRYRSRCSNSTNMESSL
Nature of the data set: Binding activity to PGD2 receptor (human platelet membrane fraction, [3H]PGD2). As to conditions: 5 nM [3H]PGD2, 4° C., 90 min. The method, then:
Experiment 1 Binding Activity to PGD2 Receptor
(1) Preparation of Human Platelet Membrane Fraction
Blood was collected using a plastic syringe containing 3.8% sodium citrate from the vein of healthy volunteers (adult male and female), then put into a plastic test tube and mixed by slow-reversion. The sample was then centrifuged at 1800 rpm, for 10 min at room temperature, and the supernatant containing PRP (platelet-rich plasma) was collected. The PRP was re-centrifuged at 2300 rpm, for 22 min at room temperature to obtain platelets. The platelets were homogenized using a homogenizer (Ultra-Turrax) followed by centrifugation 3 times at 20,000 rpm, 10 min at 4° C. to obtain a platelet membrane fraction. After protein determination, the membrane fraction was adjusted to 2 mg/ml and preserved in a refrigerator at −80° C. until using for the binding test.
(2) Binding to PGD2 Receptor
To a binding-reaction solution (50 mM Tris/HCl, pH 7.4, 5 mM MgCl2) (0.2 ml) were added the human platelet membrane fraction (0.1 mg) and 5 nM [^3H]PGD2 (115 Ci/mmol), and the mixture was reacted at 4° C. for 90 min. After the reaction, the mixture was filtered through a glass fiber filter paper and washed several times with cooled physiological saline, then the radioactivity retained on the filter paper was measured. The specific-binding ratio was calculated by subtracting the non-specific binding ratio which is the radioactivity similarly measured in the presence of 10 μM PGD2 from the total binding. The inhibitory activity of each compound was expressed as the concentration required for 50% inhibition (IC50), which was determined by depicting a substitution curve by plotting the binding ratio (%) in the presence of each compound, where the binding ratio in the absence of a test compound is 100%.

The target of data set [2] is T1, PGD2 receptor. Nature of the data set: Antagonistic activity against PGD2 receptor using human platelet (inhibition of PGD2-induced cAMP increase). As to conditions: 0.1 μM PGD2, cAMP by radioimmunoassay, read-out: Inhibitory activity for the increase of cAMP caused by PGD2 in human platelet IC50. Format: cell-based. As to the method:
Experiment 2 Evaluation of Antagonistic Activity Against PGD2 Receptor Using Human Platelet
Peripheral blood was collected from a healthy volunteer using a syringe in which 1/9 volume of a citric acid/dextrose solution was previously added. The sample was subjected to centrifugation at 1200 rpm for 10 min to obtain the supernatant (PRP: platelet rich plasma). The resultant PRP was washed 3 times with a washing buffer and the number of platelets was counted with a micro cell counter. A suspension adjusted to contain the platelets at a final concentration of 5×10^8/ml was warmed at 37° C., then subjected to the pre-treatment with 3-isobutyl-1-methylxanthine (0.5 mM) for 5 min. To the suspension was added a test compound diluted at various concentration, and 10 minutes later, 0.1 μM PGD2 was added to induce the reaction 2 minutes later, hydrochloric acid was added to terminate the reaction. The platelet was destroyed with an ultrasonic homogenizer. After centrifugation, the cAMP in the supernatant was determined by radioimmunoassay.

A short description of data set [3]: Change of plasma concentration of drug in rat (half life of the disappearance after intravenous administration). Type of data set: in vivo. As to conditions: Jcl-SD male rats, 0.5 to 2 mg/kg, plasma concentration of unchanged compound. As to the method:
Experiment 3 Change of Plasma Concentration of Drug in Rat
Compound (0.5 to 2 mg/kg) was administered intravenously to Jcl-SD male rats. The concentration of the unchanged compound was measured at 2, 5, 15, 30, 60, 120, and 240 min after the administration by the use of HPLC (determination limit; 0.05 μg/ml) and LC/MS/MS (determination limit; 0.001 μg/ml) and the half life of the disappearance was calculated. [drawing 387]

The structures appear in SMILES notation.

The term IC50 denotes the concentration at which inhibition is half-maximal. Regarding `CC1(C)[C@H]2C[C@H](CCCC/C=C/C(=O)O)[C@@H](NC(=O)c3csc4ccc(O)cc34)[C@@H]1C2` [IIa-23], the IC50 on PGD2 receptor [1] was determined as 33 nM; on PGD2 receptor [2], 2.5 nM.
A word on the half-life: it is how long it takes for the measured level to halve. High values mean slow decline, low ones rapid decline. As to `CC1(C)[C@H]2C[C@H](CCCCOCC(=O)O)[C@@H](NC(=O)c3coc4ccc(O)cc34)[C@@H]1C2` [IIc-52], the IC50 on PGD2 receptor [1] is 3.5 nM; on PGD2 receptor [2] it was 8.2 nM. The same compound came in with a half-life in data set [3] of 23.4 min.
Regarding `O=C(O)COCCCC[C@H]1[C@@H]2CC[C@@H](C2)[C@@H]1NC(=O)c1coc2ccc(O)cc12` [Ic-52], the IC50 is 74 nM on PGD2 receptor [1] and 10 nM on PGD2 receptor [2].
For `CC1(C)[C@H]2C[C@H](CCCCOCC(=O)O)[C@@H](NC(=O)c3csc4ccc(O)cc34)[C@@H]1C2` [IIc-23], in that order: 9.5 nM and 4.9 nM.
